From patent US7445765B2, “Radiopharmaceutical for diagnostic imaging containing a technetium-99m nitride heterocomplex” (Nihon Medi-Physics Co., Ltd., priority 2000, dated 2008)
Each block holds one molecule with its values, some of them ahead of it.

Experiment: Biodistribution of the 99mTc(N) heterocomplexes in rats (organ uptake, heart accumulation, heart/lung and heart/liver ratios)
Type: in vivo, female Sprague-Dawley rats
Details: for Heart/liver ratio in biodistribution / Heart/lung ratio in biodistribution: rats
Description: The biodistribution was measured by using female Sprague-Dawley rats (SD rats) weighing 200 g to 250 g. Each of the ^99mTc(N) heterocomplexes purified in the manner described above was diluted with phosphate buffer (0.1 M, pH=7.4) to obtain a final solution having an ethanol content of 10%. After the SD rats were anesthetized with an intramuscular injection of a mixture of ketamine (80 mg/kg) and xilazine (19 mg/kg), the jugular vein of each rat was surgically exposed and 100 μL (300 to 370 kBq) of the solution containing each ^99mTc(N) heterocomplexes prepared in the manner described above was injected in the jugular vein. The rats (n=3) were sacrificed by cervical dislocation at different times post injection. The blood was withdrawn from the heart through a syringe and counted. It was assumed that the whole blood content was 6.5% of the total body weight. The organs were excised from the rats, washed with physiological saline, weighed, and counted in a NaI well counter.
For comparison, Tables 19 and 20 show the results, obtained in the same manner as above, of measuring the biodistribution of (^99mTc) (MIBI) and (^99mTc) (Tf) which have been used as pharmaceuticals for diagnostic imaging for blood flow in myocardium.
Tables 21 to 23 show data showing the variations with time of heart accumulation, heart/lung ratios and heart/liver ratios for the ^99mTc(N) heterocomplexes of the present invention.

Biodistribution in rats: Adrenal glands (2 min post injection): 2.24 % dose/g
Biodistribution in rats: Blood (2 min post injection): 0.14 % dose/g
Biodistribution in rats: Brain (2 min post injection): 0.02 % dose/g
Biodistribution in rats: Heart (2 min post injection): 2.33 % dose/g
Biodistribution in rats: Intestine (2 min post injection): 3.68 % dose/g
Biodistribution in rats: Kidneys (2 min post injection): 7.19 % dose/g
Biodistribution in rats: Liver (2 min post injection): 2.79 % dose/g
Biodistribution in rats: Lungs (2 min post injection): 0.74 % dose/g
Biodistribution in rats: Muscle (2 min post injection): 0.16 % dose/g
Biodistribution in rats: Spleen (2 min post injection): 1.11 % dose/g
Biodistribution in rats: Submax. glands (2 min post injection): 0.95 % dose/g
Biodistribution in rats: Adrenal glands (10 min (Table 16)): 2.22 % dose/g
Biodistribution in rats: Blood (10 min (Table 16)): 0.93 % dose/g
Biodistribution in rats: Brain (10 min (Table 16)): 0.10 % dose/g
Biodistribution in rats: Heart (10 min (Table 16)): 3.35 % dose/g
Biodistribution in rats: Intestine (10 min (Table 16)): 3.70 % dose/g
Biodistribution in rats: Kidneys (10 min (Table 16)): 5.40 % dose/g
Biodistribution in rats: Liver (10 min (Table 16)): 0.95 % dose/g
Biodistribution in rats: Lungs (10 min (Table 16)): 2.44 % dose/g
Biodistribution in rats: Muscle (10 min (Table 16)): 0.13 % dose/g
Biodistribution in rats: Spleen (10 min (Table 16)): 1.16 % dose/g
Biodistribution in rats: Submax. glands (10 min (Table 16)): 0.92 % dose/g
Biodistribution in rats: Adrenal glands (10 min post injection): 2.70 % dose/g
Biodistribution in rats: Blood (10 min post injection): 0.04 % dose/g
Biodistribution in rats: Brain (10 min post injection): 0.02 % dose/g
Biodistribution in rats: Heart (10 min post injection): 2.91 % dose/g
Biodistribution in rats: Intestine (10 min post injection): 7.12 % dose/g
Biodistribution in rats: Kidneys (10 min post injection): 5.98 % dose/g
Biodistribution in rats: Liver (10 min post injection): 1.54 % dose/g
Biodistribution in rats: Lungs (10 min post injection): 0.73 % dose/g
Biodistribution in rats: Muscle (10 min post injection): 0.22 % dose/g
Biodistribution in rats: Spleen (10 min post injection): 1.28 % dose/g
Biodistribution in rats: Submax. glands (10 min post injection): 1.40 % dose/g
Biodistribution in rats: Adrenal glands (20 min post injection): 2.70 % dose/g
Biodistribution in rats: Blood (20 min post injection): 0.02 % dose/g
Biodistribution in rats: Brain (20 min post injection): 0.01 % dose/g
Biodistribution in rats: Heart (20 min post injection): 2.86 % dose/g
Biodistribution in rats: Intestine (20 min post injection): 7.44 % dose/g
Biodistribution in rats: Kidneys (20 min post injection): 5.31 % dose/g
Biodistribution in rats: Liver (20 min post injection): 1.09 % dose/g
Biodistribution in rats: Lungs (20 min post injection): 0.50 % dose/g
Biodistribution in rats: Muscle (20 min post injection): 0.20 % dose/g
Biodistribution in rats: Spleen (20 min post injection): 1.20 % dose/g
Biodistribution in rats: Submax. glands (20 min post injection): 1.85 % dose/g
Biodistribution in rats: Adrenal glands (30 min post injection): 2.72 % dose/g
Biodistribution in rats: Blood (30 min post injection): 0.02 % dose/g
Biodistribution in rats: Brain (30 min post injection): 0.01 % dose/g
Biodistribution in rats: Heart (30 min post injection): 2.47 % dose/g
Biodistribution in rats: Intestine (30 min post injection): 8.36 % dose/g
Biodistribution in rats: Kidneys (30 min post injection): 5.28 % dose/g
Biodistribution in rats: Liver (30 min post injection): 1.06 % dose/g
Biodistribution in rats: Lungs (30 min post injection): 0.45 % dose/g
Biodistribution in rats: Muscle (30 min post injection): 0.13 % dose/g
Biodistribution in rats: Spleen (30 min post injection): 0.35 % dose/g
Biodistribution in rats: Submax. glands (30 min post injection): 1.51 % dose/g
Biodistribution in rats: Adrenal glands (60 min post injection): 2.23 % dose/g
Biodistribution in rats: Blood (60 min post injection): 0.02 % dose/g
Biodistribution in rats: Brain (60 min post injection): 0.00 % dose/g
Biodistribution in rats: Heart (60 min post injection): 2.74 % dose/g
Biodistribution in rats: Intestine (60 min post injection): 8.29 % dose/g
Biodistribution in rats: Kidneys (60 min post injection): 5.12 % dose/g
Biodistribution in rats: Liver (60 min post injection): 0.43 % dose/g
Biodistribution in rats: Lungs (60 min post injection): 0.35 % dose/g
Biodistribution in rats: Muscle (60 min post injection): 0.15 % dose/g
Biodistribution in rats: Spleen (60 min post injection): 0.73 % dose/g
Biodistribution in rats: Submax. glands (60 min post injection): 1.79 % dose/g
Biodistribution in rats: Adrenal glands (120 min post injection): 2.98 % dose/g
Biodistribution in rats: Blood (120 min post injection): 0.01 % dose/g
Biodistribution in rats: Brain (120 min post injection): 0.01 % dose/g
Biodistribution in rats: Heart (120 min post injection): 2.44 % dose/g
Biodistribution in rats: Intestine (120 min post injection): 8.00 % dose/g
Biodistribution in rats: Kidneys (120 min post injection): 4.50 % dose/g
Biodistribution in rats: Liver (120 min post injection): 0.23 % dose/g
Biodistribution in rats: Lungs (120 min post injection): 0.22 % dose/g
Biodistribution in rats: Muscle (120 min post injection): 0.19 % dose/g
Biodistribution in rats: Spleen (120 min post injection): 0.41 % dose/g
Biodistribution in rats: Submax. glands (120 min post injection): 1.38 % dose/g
Compound: CCOCCN1CC[P](CCCOC)(CCCOC)[99Tc+]2(#[N])([S]C(N(CCOCC)C(C)C)=[S]2)[P](CCCOC)(CCCOC)CC1 [[^99mTc(N) (PNP5) (ISOET)]^+]

Heart/liver ratio in biodistribution (0 min): 3.53
Heart/lung ratio in biodistribution (0 min): 1.37
Heart/liver ratio in biodistribution (2 min): 0.83
Heart/lung ratio in biodistribution (2 min): 3.15
Heart/liver ratio in biodistribution (10 min): 1.90
Heart/lung ratio in biodistribution (10 min): 3.99
Heart/liver ratio in biodistribution (20 min): 2.62
Heart/lung ratio in biodistribution (20 min): 5.72
Heart/liver ratio in biodistribution (30 min): 2.33
Heart/lung ratio in biodistribution (30 min): 5.49
Heart/liver ratio in biodistribution (60 min): 6.37
Heart/lung ratio in biodistribution (60 min): 7.83
Heart/liver ratio in biodistribution (120 min): 10.61
Heart/lung ratio in biodistribution (120 min): 11.09
Compound: CCOCCN1CC[P](CCCOC)(CCCOC)[99Tc+]2(#[N])([S]C(N(CCOCC)C(C)C)=[S]2)[P](CCCOC)(CCCOC)CC1 [[^99mTc(N) (PNP5) (ISOET)^+]]
